Source: patent US10406207B2, “Peptide conjugates of GLP-1 receptor agonists and gastrin and their use” (priority 2010, dated 2019)
Read-outs that look alike come from different tables or passages of the source. Square brackets hold non-standard residues; d marks the D form. Peptide text beside a SMILES is read from it. Orn = NCCC[C@H](N)C(=O)O; AEEA = NCCOCCOCC(=O)O

Columns and labels:
human CCK-B R = target: T1, human CCK-B R (Homo sapiens, UniProt P32239); assay: Human CCK-B receptor efficacy assay (AlphaScreen SureFire p-ERK); assay type: cell-based; conditions: read-out: hCCK-B R EC50
T1 construct: expressed in transfected cells
T1 sequence (P32239 1-447): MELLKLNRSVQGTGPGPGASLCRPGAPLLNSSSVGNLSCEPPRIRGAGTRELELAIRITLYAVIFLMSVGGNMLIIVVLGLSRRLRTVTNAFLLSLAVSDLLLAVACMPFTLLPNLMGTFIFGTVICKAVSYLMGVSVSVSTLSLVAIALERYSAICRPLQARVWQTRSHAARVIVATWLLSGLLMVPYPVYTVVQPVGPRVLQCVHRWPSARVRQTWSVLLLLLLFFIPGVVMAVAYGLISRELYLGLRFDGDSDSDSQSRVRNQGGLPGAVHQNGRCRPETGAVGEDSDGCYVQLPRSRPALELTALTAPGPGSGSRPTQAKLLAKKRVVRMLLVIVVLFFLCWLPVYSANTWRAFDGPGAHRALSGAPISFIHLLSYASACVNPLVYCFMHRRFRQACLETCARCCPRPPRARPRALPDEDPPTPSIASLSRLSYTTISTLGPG

human GLP-1 R = target: T2, human GLP-1 R (Homo sapiens, UniProt P43220); assay: Human GLP-1 receptor efficacy assay (cAMP induction, FlashPlate); assay type: cell-based; conditions: Table 2; read-out: hGLP-1 R EC50
T2 construct: expressed in transfected cells
Method: On the day of analysis, growth medium was removed and the cells were washed once with 200 μl Tyrode buffer [Tyrode's Salts (9.6 g/l), 10 mM HEPES, pH 7.4]. […] The reaction was stopped by addition of 25 μl 0.5 M HCl and incubated on ice for 60 min.

T2 sequence (P43220 24-463): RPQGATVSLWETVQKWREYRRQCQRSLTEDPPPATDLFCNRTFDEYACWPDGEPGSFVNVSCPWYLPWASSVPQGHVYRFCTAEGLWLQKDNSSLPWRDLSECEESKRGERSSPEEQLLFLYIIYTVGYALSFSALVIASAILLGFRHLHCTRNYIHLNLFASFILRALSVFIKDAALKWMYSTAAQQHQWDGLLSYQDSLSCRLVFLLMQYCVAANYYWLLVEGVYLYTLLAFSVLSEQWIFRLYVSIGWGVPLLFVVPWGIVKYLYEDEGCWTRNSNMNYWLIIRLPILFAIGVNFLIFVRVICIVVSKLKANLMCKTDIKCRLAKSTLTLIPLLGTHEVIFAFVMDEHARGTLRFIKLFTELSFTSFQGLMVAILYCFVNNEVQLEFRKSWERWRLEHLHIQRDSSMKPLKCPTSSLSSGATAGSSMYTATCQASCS

Molecule | EC50 (human CCK-B R; Table 2) [nM] | EC50 (human GLP-1 R) [nM] | EC50 (human CCK-B R; Table 3) [nM]
H-HGEGTFTSELSKYLEEEAVRLFIEFLKYGWLDF-NH2 [Compound 101, [Glu9,Leu14,Phe25,Tyr13]Exendin-4(1-27)-[Leu4]Gastrin6] | 30 | 0.11 | –
CC[C@H](C)[C@H](NC(=O)[C@H](Cc1ccccc1)NC(=O)[C@H](CC(C)C)NC(=O)[C@H](CCCNC(=N)N)NC(=O)[C@@H](NC(=O)[C@H](C)NC(=O)[C@H](CCC(=O)O)NC(=O)[C@H](CCC(=O)O)NC(=O)[C@H](CCC(=O)O)NC(=O)[C@H](CC(C)C)NC(=O)[C@H](Cc1ccc(O)cc1)NC(=O)[C@H](CCCCN)NC(=O)[C@H](CO)NC(=O)[C@H](CC(C)C)NC(=O)[C@H](CCC(=O)O)NC(=O)[C@H](CO)NC(=O)[C@@H](NC(=O)[C@H](Cc1ccccc1)NC(=O)[C@@H](NC(=O)CNC(=O)[C@H](CCC(=O)O)NC(=O)CNC(=O)[C@@H](N)Cc1c[nH]cn1)[C@@H](C)O)[C@@H](C)O)C(C)C)C(=O)N[C@@H](CCC(=O)O)C(=O)N[C@@H](Cc1ccccc1)C(=O)N[C@@H](CC(C)C)C(=O)N[C@@H](CCCCN)C(=O)NCCOCCOCC(=O)N[C@@H](CCCN)C(=O)N[C@@H](Cc1ccc(O)cc1)C(=O)NCC(=O)N[C@@H](Cc1c[nH]c2ccccc12)C(=O)N[C@@H](CC(C)C)C(=O)N[C@@H](CC(=O)O)C(=O)N[C@@H](Cc1ccccc1)C(N)=O [Compound 104, [Glu9,Leu14,Phe25,Tyr13]Exendin-4(1-27)-Peg3-Orn-[Leu4]Gastrin6] (H-HGEGTFTSELSKYLEEEAVRLFIEFLK[AEEA][Orn]YGWLDF-NH2) | 8.8 | 0.087 | –
CCCCCCCCCCCCCCCC(=O)N[C@@H](CCC(=O)NCCCC[C@H](NC(=O)[C@H](C)NC(=O)[C@H](C)NC(=O)[C@H](CCC(N)=O)NC(=O)CNC(=O)[C@H](CCC(=O)O)NC(=O)[C@H](CC(C)C)NC(=O)[C@H](Cc1ccc(O)cc1)NC(=O)[C@H](CO)NC(=O)[C@H](CO)NC(=O)[C@@H](NC(=O)[C@H](CC(=O)O)NC(=O)[C@H](CO)NC(=O)[C@@H](NC(=O)[C@H](Cc1ccccc1)NC(=O)[C@@H](NC(=O)CNC(=O)[C@H](CCC(=O)O)NC(=O)[C@H](C)NC(=O)[C@@H](N)Cc1c[nH]cn1)[C@@H](C)O)[C@@H](C)O)C(C)C)C(=O)N[C@@H](CCC(=O)O)C(=O)N[C@@H](Cc1ccccc1)C(=O)N[C@H](C(=O)N[C@@H](C)C(=O)N[C@@H](Cc1c[nH]c2ccccc12)C(=O)N[C@@H](CC(C)C)C(=O)N[C@H](C(=O)N[C@@H](CCCNC(=N)N)C(=O)NCC(=O)N[C@@H](CCCNC(=N)N)C(=O)NCC(=O)NCCOCCOCC(=O)NCCOCCOCC(=O)N[C@@H](Cc1ccc(O)cc1)C(=O)NCC(=O)N[C@@H](Cc1c[nH]c2ccccc12)C(=O)N[C@@H](CC(C)C)C(=O)N[C@@H](CC(=O)O)C(=O)N[C@@H](Cc1ccccc1)C(N)=O)C(C)C)[C@@H](C)CC)C(=O)O [Compound 107, [Arg34,Lys(Hexadecanoyl-isoGlu)26]GLP-1(7-37)-Peg3-Peg3-[Leu4]Gastrin6] | – | – | 29
CCCCCCCCCCCCCCCC(=O)N[C@@H](CCC(=O)NCCCC[C@H](NC(=O)[C@H](C)NC(=O)[C@H](C)NC(=O)[C@H](CCC(N)=O)NC(=O)CNC(=O)[C@H](CCC(=O)O)NC(=O)[C@H](CC(C)C)NC(=O)[C@H](Cc1ccc(O)cc1)NC(=O)[C@H](CO)NC(=O)[C@H](CO)NC(=O)[C@@H](NC(=O)[C@H](CC(=O)O)NC(=O)[C@H](CO)NC(=O)[C@@H](NC(=O)[C@H](Cc1ccccc1)NC(=O)[C@@H](NC(=O)CNC(=O)[C@H](CCC(=O)O)NC(=O)[C@H](C)NC(=O)[C@@H](N)Cc1c[nH]cn1)[C@@H](C)O)[C@@H](C)O)C(C)C)C(=O)N[C@@H](CCC(=O)O)C(=O)N[C@@H](Cc1ccccc1)C(=O)N[C@H](C(=O)N[C@@H](C)C(=O)N[C@@H](Cc1c[nH]c2ccccc12)C(=O)N[C@@H](CC(C)C)C(=O)N[C@H](C(=O)N[C@@H](CCCCN)C(=O)NCC(=O)N[C@@H](CCCNC(=N)N)C(=O)NCC(=O)NCCOCCOCC(=O)NCCOCCOCC(=O)N[C@@H](Cc1ccc(O)cc1)C(=O)NCC(=O)N[C@@H](Cc1c[nH]c2ccccc12)C(=O)N[C@@H](CC(C)C)C(=O)N[C@@H](CC(=O)O)C(=O)N[C@@H](Cc1ccccc1)C(N)=O)C(C)C)[C@@H](C)CC)C(=O)O [Compound 109, [Lys(Hexadecanoyl-isoGlu)26]GLP-1(7-37)-Peg3-Peg3-[Leu4]Gastrin6] | – | – | 26

Second part, the molecule after the results:

EC50 (human CCK-B R; Table 2) [nM] | EC50 (human GLP-1 R) [nM] | EC50 (human CCK-B R; Table 3) [nM] | Molecule
100 | 0.12 | – | CC[C@H](C)[C@H](NC(=O)[C@H](Cc1ccccc1)NC(=O)[C@H](CC(C)C)NC(=O)[C@H](CCCNC(=N)N)NC(=O)[C@@H](NC(=O)[C@H](C)NC(=O)[C@H](CCC(=O)O)NC(=O)[C@H](CCC(=O)O)NC(=O)[C@H](CCC(=O)O)NC(=O)[C@H](CC(C)C)NC(=O)[C@H](Cc1ccc(O)cc1)NC(=O)[C@H](CCCCN)NC(=O)[C@H](CO)NC(=O)[C@H](CC(C)C)NC(=O)[C@H](CCC(=O)O)NC(=O)[C@H](CO)NC(=O)[C@@H](NC(=O)[C@H](Cc1ccccc1)NC(=O)[C@@H](NC(=O)CNC(=O)[C@H](CCC(=O)O)NC(=O)CNC(=O)[C@@H](N)Cc1c[nH]cn1)[C@@H](C)O)[C@@H](C)O)C(C)C)C(=O)N[C@@H](CCC(=O)O)C(=O)N[C@@H](Cc1ccccc1)C(=O)N[C@@H](CC(C)C)C(=O)N[C@@H](CCCCN)C(=O)N[C@@H](CCCN)C(=O)NCCOCCOCC(=O)N[C@@H](Cc1ccc(O)cc1)C(=O)NCC(=O)N[C@@H](Cc1c[nH]c2ccccc12)C(=O)N[C@@H](CC(C)C)C(=O)N[C@@H](CC(=O)O)C(=O)N[C@@H](Cc1ccccc1)C(N)=O [Compound 103, [Glu9,Leu14,Phe25,Tyr13]Exendin-4(1-27)-Orn-Peg3-[Leu4]Gastrin6] (H-HGEGTFTSELSKYLEEEAVRLFIEFLK[Orn][AEEA]YGWLDF-NH2)
1200 | – | – | CC[C@H](C)[C@H](NC(=O)[C@H](Cc1ccccc1)NC(=O)[C@H](CC(C)C)NC(=O)[C@H](CCCNC(=N)N)NC(=O)[C@@H](NC(=O)[C@H](C)NC(=O)[C@H](CCC(=O)O)NC(=O)[C@H](CCC(=O)O)NC(=O)[C@H](CCC(=O)O)NC(=O)[C@H](CC(C)C)NC(=O)[C@H](Cc1ccc(O)cc1)NC(=O)[C@H](CCCCN)NC(=O)[C@H](CO)NC(=O)[C@H](CC(C)C)NC(=O)[C@H](CC(=O)O)NC(=O)[C@H](CO)NC(=O)[C@@H](NC(=O)[C@H](Cc1ccccc1)NC(=O)[C@@H](NC(=O)CNC(=O)[C@H](CCC(=O)O)NC(=O)CNC(=O)[C@@H](N)Cc1c[nH]cn1)[C@@H](C)O)[C@@H](C)O)C(C)C)C(=O)N[C@@H](CCC(=O)O)C(=O)N[C@@H](Cc1ccccc1)C(=O)N[C@@H](CC(C)C)C(=O)N[C@@H](CCCCN)C(=O)NCCOCCOCC(=O)NCCOCCOCC(=O)N[C@@H](Cc1ccc(O)cc1)C(=O)NCC(=O)N[C@@H](Cc1ccccc1)C(=O)N[C@@H](CC(C)C)C(=O)N[C@@H](CC(=O)O)C(=O)N[C@@H](Cc1ccccc1)C(N)=O [Compound 89, [Leu14, Phe25,Tyr13]Exendin-4(1-27)-Peg3-Peg3-[Leu4, Phe3]Gastrin6] (H-HGEGTFTSDLSKYLEEEAVRLFIEFLK[AEEA][AEEA]YGFLDF-NH2)
– | – | 24 | CC[C@H](C)[C@H](NC(=O)[C@H](Cc1ccccc1)NC(=O)[C@H](CCC(=O)O)NC(=O)[C@H](CCCCN)NC(=O)[C@H](C)NC(=O)[C@H](C)NC(=O)[C@H](CCC(N)=O)NC(=O)CNC(=O)[C@H](CCC(=O)O)NC(=O)[C@H](CC(C)C)NC(=O)[C@H](Cc1ccc(O)cc1)NC(=O)[C@H](CO)NC(=O)[C@H](CO)NC(=O)[C@@H](NC(=O)[C@H](CC(=O)O)NC(=O)[C@H](CO)NC(=O)[C@@H](NC(=O)[C@H](Cc1ccccc1)NC(=O)[C@@H](NC(=O)CNC(=O)[C@H](CCC(=O)O)NC(=O)[C@H](C)NC(=O)[C@@H](N)Cc1c[nH]cn1)[C@@H](C)O)[C@@H](C)O)C(C)C)C(=O)N[C@@H](C)C(=O)N[C@@H](Cc1c[nH]c2ccccc12)C(=O)N[C@@H](CC(C)C)C(=O)N[C@H](C(=O)N[C@@H](CCCNC(=N)N)C(=O)NCC(=O)N[C@@H](CCCNC(=N)N)C(=O)NCC(=O)NCCOCCOCC(=O)NCCOCCOCC(=O)N[C@@H](Cc1ccc(O)cc1)C(=O)NCC(=O)N[C@@H](Cc1c[nH]c2ccccc12)C(=O)N[C@@H](CC(C)C)C(=O)N[C@@H](CC(=O)O)C(=O)N[C@@H](Cc1ccccc1)C(N)=O)C(C)C [Compound 113, [Arg34]GLP-1(7-37)-Peg3-Peg3-[Leu4]Gastrin6]
– | – | 18 | CCCCCCCCCCCCCCCC(=O)N[C@@H](CCC(=O)NCCCC[C@H](NC(=O)[C@@H](NC(=O)[C@H](CC(C)C)NC(=O)[C@H](Cc1c[nH]c2ccccc12)NC(=O)[C@H](C)NC(=O)[C@@H](NC(=O)[C@H](Cc1ccccc1)NC(=O)[C@H](CCC(=O)O)NC(=O)[C@H](CCCCN)NC(=O)[C@H](C)NC(=O)[C@H](C)NC(=O)[C@H](CCC(N)=O)NC(=O)CNC(=O)[C@H](CCC(=O)O)NC(=O)[C@H](CC(C)C)NC(=O)[C@H](Cc1ccc(O)cc1)NC(=O)[C@H](CO)NC(=O)[C@H](CO)NC(=O)[C@@H](NC(=O)[C@H](CC(=O)O)NC(=O)[C@H](CO)NC(=O)[C@@H](NC(=O)[C@H](Cc1ccccc1)NC(=O)[C@@H](NC(=O)CNC(=O)[C@H](CCC(=O)O)NC(=O)[C@H](C)NC(=O)[C@@H](N)Cc1c[nH]cn1)[C@@H](C)O)[C@@H](C)O)C(C)C)[C@@H](C)CC)C(C)C)C(=O)NCC(=O)N[C@@H](CCCNC(=N)N)C(=O)NCC(=O)NCCOCCOCC(=O)NCCOCCOCC(=O)N[C@@H](Cc1ccc(O)cc1)C(=O)NCC(=O)N[C@@H](Cc1c[nH]c2ccccc12)C(=O)N[C@@H](CC(C)C)C(=O)N[C@@H](CC(=O)O)C(=O)N[C@@H](Cc1ccccc1)C(N)=O)C(=O)O [Compound 106, [Lys(Hexadecanoyl-isoGlu)34]GLP-1(7-37)-Peg3-Peg3-[Leu4]Gastrin6]
